Article PMC9250534, “Synthesis and direct assay of large macrocycle diversities by combinatorial late-stage modification at picomole scale” (Nature Communications, 2022)
Numbered stars: 1 amine (or outer) side, 2 acyl side, 3 side chain; on linkers, the order of the positions; unused ones are H or OH. Bridge positions count the residues as written; N and C are the ends. Square brackets hold non-standard residues; d marks the D form. Peptide text beside a SMILES is read from it. * marks the point of attachment. ξ: configuration not given here. ξPro(4-NHCO(5-Cl-2-thienyl)) = O=C(NC1CNC(C(=O)O)C1)c1ccc(Cl)s1; 2Thenoyl(5-Cl) = O=C(c1ccc(Cl)s1)*; Benzoyl(4-Cl) = O=C(c1ccc(Cl)cc1)*; Cysteamide = C(CS[*:3])N[*:1]; X3 = O=C(Cc1c[nH]c2ccccc12)*; Api = NC1(C(=O)O)CCNCC1; Dap = NC[CH](N)C(=O)O; X2 = O=C(C=Cc1ccccc1)*; Mpa = O=C(O)CCS

Target: MDM2 (Homo sapiens, UniProt Q00987)
Sequence (Q00987 whole entry): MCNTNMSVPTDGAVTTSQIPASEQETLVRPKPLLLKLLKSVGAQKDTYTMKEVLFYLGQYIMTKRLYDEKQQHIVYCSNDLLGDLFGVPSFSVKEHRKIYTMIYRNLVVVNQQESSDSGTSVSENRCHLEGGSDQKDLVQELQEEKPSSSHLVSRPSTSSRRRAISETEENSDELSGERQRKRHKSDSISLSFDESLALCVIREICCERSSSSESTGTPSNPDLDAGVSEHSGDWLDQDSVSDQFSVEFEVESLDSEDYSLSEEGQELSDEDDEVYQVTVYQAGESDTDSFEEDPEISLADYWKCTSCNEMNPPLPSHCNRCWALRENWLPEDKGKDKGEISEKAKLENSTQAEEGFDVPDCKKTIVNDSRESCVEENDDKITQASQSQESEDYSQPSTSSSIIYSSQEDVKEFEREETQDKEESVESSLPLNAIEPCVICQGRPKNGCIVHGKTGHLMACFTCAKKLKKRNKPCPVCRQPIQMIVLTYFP
Test: MDM2 binding screen: displacement of fluorescent p53 peptide probe FP53 (fluorescence polarization)
Settings: for fraction fluorescent probe displaced, Screen: initial screen; for fraction fluorescent probe displaced, Screen / fraction fluorescent probe displaced, Replicate: crude macrocycle reactions
Method in brief: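 Macrocycle reaction products at a final 10 µM were tested for displacement of a p53-based fluorescent peptide from human MDM2. Fluorescence anisotropy (ex 485/em 535 nm) was read once per macrocycle at 25 °C.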

How did the “fraction fluorescent probe displaced, Screen” value (Acid 14) turn out when `O=C(NC1CC2C(=O)NC(Cc3ccccc3)C(=O)N3CCCC(C3)C(=O)NCCSSCCC(=O)N2C1)c1ccc(Cl)s1` (centres unmarked) [X D5 F B4 Acid 14] was run?
The value was 0.0241.

What about the “fraction fluorescent probe displaced, Replicate” value (Acid 14, replicate) of the same molecule?
The value was 0.10.

`O=C1CCSSCCNC(=O)C(CNC(=O)c2ccc(Cl)cc2)NC(=O)C2CCCN2C(=O)C(Cc2ccccc2)N1` (centres unmarked) [X F B1 D3 Acid 25] ([Mpa]FP[Dap](Benzoyl(4-Cl))-Cysteamide; disulfide 1-C; configuration not given here) was tested. Which “fraction fluorescent probe displaced, Screen” value (Acid 25) did it give?
The value was 0.12.

What about the “fraction fluorescent probe displaced, Replicate” value (Acid 25, replicate) of the same molecule?
Its value is 0.22.

For `O=C(/C=C/c1ccccc1)NC[C@@H]1NC(=O)CCNC(=O)CCSSCCNC(=O)[C@H](Cc2ccccc2)NC1=O` [X B2 D3 F Acid 91], which “fraction fluorescent probe displaced, Screen” value (Acid 91) is on record?
Its value is 0.0563.

What about the “fraction fluorescent probe displaced, Replicate” value (Acid 91, replicate) of the same molecule?
The value was -0.00827.

For `O=C1CCSSCCNC(=O)C2(CCN(C(=O)c3ccc(Cl)s3)CC2)NC(=O)CCNC(=O)[C@H](Cc2c[nH]c3ccccc23)N1` [X W B2 D6 Acid 14], which “fraction fluorescent probe displaced, Screen” value (Acid 14) is on record?
The value was 0.20.

And the “fraction fluorescent probe displaced, Replicate” value (Acid 14, replicate)?
Its value is -0.00432.

With `O=C1CCSSCCNC(=O)[C@H](Cc2ccccc2)NC(=O)[C@@H]2CCCN2C(=O)[C@H](CNC(=O)c2ccc(Cl)s2)N1` [X D3 B1 F Acid 14] ([Mpa][Dap](2Thenoyl(5-Cl))PF-Cysteamide; disulfide 1-C) as the molecule, how does the “fraction fluorescent probe displaced, Screen” value (Acid 14) read?
Its value is 0.11.

What about the “fraction fluorescent probe displaced, Replicate” value (Acid 14, replicate) of the same molecule?
Its value is 0.07.

`O=C(C=Cc1ccccc1)NC1CC2C(=O)NC(Cc3ccccc3)C(=O)NCCC(=O)NCCSSCCC(=O)N2C1` (centres unmarked) [X D5 F B2 Acid 91] was tested. Which “fraction fluorescent probe displaced, Screen” value (Acid 91) did it give?
The value was 0.0563.

And the “fraction fluorescent probe displaced, Replicate” value (Acid 91, replicate)?
Its value is -0.0333.

Which results are given for `O=C1CCSSCCNC(=O)[C@@H]2C[C@H](NC(=O)c3ccc(Cl)s3)CN2C(=O)[C@H](Cc2c[nH]c3ccccc23)NC(=O)CCN1` [X B2 W D5 Acid 14]?
fraction fluorescent probe displaced, Screen (Acid 14): 0.11; fraction fluorescent probe displaced, Replicate (Acid 14, replicate): 0.15

`O=C1CCSSCCNC(=O)C2CN(C(=O)c3ccc(Cl)cc3)CCN2C(=O)C(Cc2ccccc2)NC(=O)c2cccc(c2)CN1` (mixture of isomers) [X B5 F D7 Acid 25] was tested. Which “fraction fluorescent probe displaced, Screen” value (Acid 25) did it give?
Its value is -0.00813.

And the “fraction fluorescent probe displaced, Replicate” value (Acid 25, replicate)?
Its value is 0.17.

With `O=C1NC2(CCN(C(=O)c3ccc(Cl)cc3)CC2)C(=O)N[C@@H](Cc2ccccc2)C(=O)NCCSSCCC(=O)N2CCC[C@H]1C2` [X B4 D6 F + Acid 25] as the molecule, how does the “fraction fluorescent probe displaced” value (crude reaction of macrocycle scaffold with Acid 25, (initial screen)) read?
The value was 0.0462.

And the “fraction fluorescent probe displaced” value (crude reaction of macrocycle scaffold with Acid 25, replicate)?
The value was 0.10.

`O=C1CCSSCCNC(=O)[C@H](Cc2ccccc2)NC(=O)C2(CCN(C(=O)c3ccc(Cl)s3)CC2)NC(=O)CCN1` [X B2 D6 F Acid 14] was tested. Which “fraction fluorescent probe displaced, Screen” value (Acid 14) did it give?
Its value is 0.13.

And the “fraction fluorescent probe displaced, Replicate” value (Acid 14, replicate)?
Its value is 0.0229.

Which results are given for `O=C1CCSSCCNC(=O)C2(CCN(C(=O)c3ccc(Cl)s3)CC2)NC(=O)[C@H]2CCCN(C2)C(=O)[C@H](Cc2c[nH]c3ccccc23)N1` [X W B4 D6 Acid 14]?
fraction fluorescent probe displaced, Screen (Acid 14): 0.17; fraction fluorescent probe displaced, Replicate (Acid 14, replicate): 0.33

How did the “fraction fluorescent probe displaced, Screen” value (Acid 91) turn out when `O=C1CCSSCCNC(=O)c2cccc(c2)CNC(=O)[C@H](Cc2c[nH]c3ccccc23)NC(=O)C2(CCN(C(=O)/C=C/c3ccccc3)CC2)N1` [X D6 W B5 Acid 91] was run?
Its value is -0.05.

What about the “fraction fluorescent probe displaced, Replicate” value (Acid 91, replicate) of the same molecule?
The value was 0.07.

With `O=C(Cc1c[nH]c2ccccc12)NC[C@@H]1NC(=O)[C@@H]2CCCN2C(=O)CCSSCCNC(=O)[C@H](Cc2c[nH]c3ccccc23)NC1=O` [X-B1-D3-W + A12] ([Mpa]P[Dap](X3)W-Cysteamide; disulfide 1-C) as the molecule, how does the “fraction fluorescent probe displaced” value (10 µM macrocycle concentration, crude acylated macrocycle (scaffold Mpa-AA1-AA2-AA3 x carboxylic acid), p53-based fluorescent peptide, human MDM2) read?
Its value is 0.1189.

What does the source list for `O=C(C=Cc1ccccc1)NC1CC2C(=O)NCCSSCCC(=O)NCc3cccc(c3)C(=O)NC(Cc3c[nH]c4ccccc34)C(=O)N2C1` (centres unmarked) [X B5 W D5 Acid 91]?
fraction fluorescent probe displaced, Screen (Acid 91): 0.00268; fraction fluorescent probe displaced, Replicate (Acid 91, replicate): 0.12

`O=C1CCSSCCNC(=O)[C@H]2CCCN(C2)C(=O)[C@H](Cc2ccccc2)NC(=O)C2(CCN(C(=O)/C=C/c3ccccc3)CC2)N1` [X D6 F B4 + Acid 91] was tested. Which “fraction fluorescent probe displaced” value (crude reaction of macrocycle scaffold with Acid 91, (initial screen)) did it give?
The value was 0.03.

What about the “fraction fluorescent probe displaced” value (crude reaction of macrocycle scaffold with Acid 91, replicate) of the same molecule?
The value was -0.00827.

How did the “fraction fluorescent probe displaced, Screen” value (Acid 25) turn out when `O=C1CCNC(=O)[C@H](Cc2c[nH]c3ccccc23)NC(=O)CCSSCCNC(=O)[C@H](CNC(=O)c2ccc(Cl)cc2)N1` [X W B2 D3 Acid 25] was run?
Its value is 0.28.

And the “fraction fluorescent probe displaced, Replicate” value (Acid 25, replicate)?
Its value is 0.22.

With `O=C1NC2(CCN(C(=O)C=Cc3ccccc3)CC2)C(=O)NCCSSCCC(=O)N2CCCC2C(=O)NC1Cc1ccccc1` (centres unmarked) [X B1 F D6 Acid 91] ([Mpa]PF[Api](X2)-Cysteamide; disulfide 1-C; configuration not given here) as the molecule, how does the “fraction fluorescent probe displaced, Screen” value (Acid 91) read?
The value was 0.00268.

And the “fraction fluorescent probe displaced, Replicate” value (Acid 91, replicate)?
Its value is 0.04.

With `O=C1NCCSSCCC(=O)N2CCN(C(=O)c3ccc(Cl)cc3)CC2C(=O)NC(Cc2c[nH]c3ccccc23)C(=O)NCc2cccc1c2` (mixture of isomers) [X D7 W B5 Acid 25] as the molecule, how does the “fraction fluorescent probe displaced, Screen” value (Acid 25) read?
The value was 0.61.

What about the “fraction fluorescent probe displaced, Replicate” value (Acid 25, replicate) of the same molecule?
The value was 0.58.

`O=C1NC(Cc2ccccc2)C(=O)N2CCN(C(=O)c3ccc(Cl)s3)CC2C(=O)NCCSSCCC(=O)N2CCCC12` (centres unmarked) [X B1 F D7 Acid 14] was tested. Which “fraction fluorescent probe displaced, Screen” value (Acid 14) did it give?
Its value is 0.053.

What about the “fraction fluorescent probe displaced, Replicate” value (Acid 14, replicate) of the same molecule?
Its value is 0.12.

Which “fraction fluorescent probe displaced, Screen” value (Acid 14) does the source give for `O=C1CCSSCCNC(=O)[C@H](Cc2c[nH]c3ccccc23)NC(=O)[C@H]2CCCN(C2)C(=O)[C@H](CNC(=O)c2ccc(Cl)s2)N1` [X D3 B4 W Acid 14] here?
The value was 0.08.

What about the “fraction fluorescent probe displaced, Replicate” value (Acid 14, replicate) of the same molecule?
The value was 0.12.

With `O=C(NC1CC2C(=O)N3CCCC3C(=O)NC(Cc3c[nH]c4ccccc34)C(=O)NCCSSCCC(=O)N2C1)c1ccc(Cl)s1` (centres unmarked) [X D5 B1 W Acid 14] ([Mpa][ξPro(4-NHCO(5-Cl-2-thienyl))]PW-Cysteamide; disulfide 1-C; configuration not given here) as the molecule, how does the “fraction fluorescent probe displaced, Screen” value (Acid 14) read?
The value was 0.17.

What about the “fraction fluorescent probe displaced, Replicate” value (Acid 14, replicate) of the same molecule?
The value was 0.0465.

How did the “fraction fluorescent probe displaced, Screen” value (Acid 25) turn out when `O=C1CCSSCCNC(=O)[C@H](CNC(=O)c2ccc(Cl)cc2)NC(=O)[C@H](Cc2ccccc2)NC(=O)CCN1` [X B2 F D3 Acid 25] was run?
Its value is 0.0569.

And the “fraction fluorescent probe displaced, Replicate” value (Acid 25, replicate)?
The value was -0.03.

Which results are given for `O=C1CCSSCCNC(=O)c2cccc(c2)CNC(=O)C2(CCN(C(=O)c3ccc(Cl)s3)CC2)NC(=O)[C@H](Cc2c[nH]c3ccccc23)N1` [X W D6 B5 Acid 14]?
fraction fluorescent probe displaced, Screen (Acid 14): 0.14; fraction fluorescent probe displaced, Replicate (Acid 14, replicate): 0.22

For `O=C1CCSSCCNC(=O)C(CNC(=O)c2ccc(Cl)cc2)NC(=O)C2CCCN(C2)C(=O)C(Cc2ccccc2)N1` (centres unmarked) [X F B4 D3 Acid 25], which “fraction fluorescent probe displaced, Screen” value (Acid 25) is on record?
The value was 0.12.

And the “fraction fluorescent probe displaced, Replicate” value (Acid 25, replicate)?
Its value is 0.22.

What does the source list for `O=C1CCSSCCNC(=O)[C@H](Cc2c[nH]c3ccccc23)NC(=O)CCNC(=O)[C@H](CNC(=O)c2ccc(Cl)s2)N1` [X D3 B2 W Acid 14]?
fraction fluorescent probe displaced, Screen (Acid 14): 0.17; fraction fluorescent probe displaced, Replicate (Acid 14, replicate): 0.25

What does the source list for `O=C1CCSSCCNC(=O)C2(CCN(C(=O)c3ccc(Cl)cc3)CC2)NC(=O)[C@@H]2CCCN2C(=O)[C@H](Cc2ccccc2)N1` [X F B1 D6 Acid 25] ([Mpa]FP[Api](Benzoyl(4-Cl))-Cysteamide; disulfide 1-C)?
fraction fluorescent probe displaced, Screen (Acid 25): 0.22; fraction fluorescent probe displaced, Replicate (Acid 25, replicate): 0.10

For `O=C1CCNC(=O)C(Cc2c[nH]c3ccccc23)NC(=O)C2CN(C(=O)c3ccc(Cl)s3)CCN2C(=O)CCSSCCN1` (centres unmarked) [X D7 W B2 Acid 14], which “fraction fluorescent probe displaced, Screen” value (Acid 14) is on record?
Its value is 0.11.

What about the “fraction fluorescent probe displaced, Replicate” value (Acid 14, replicate) of the same molecule?
The value was 0.10.
